Measurements reported in ChEMBL document CHEMBL3885881, “DrugMatrix”.

Species on record: Rattus norvegicus
Experiment: DrugMatrix - Regimen: Daily Repeat
Format: toxicity, organism-based, Sprague-Dawley
Design: regimen Daily Repeat, gender Male, age 6-8 weeks
Details: in vivo, po, route oral GAVAGE, […]; for ABSOLUTE BASOPHIL / BASOPHIL / ABSOLUTE EOSINOPHIL / ABSOLUTE LYMPHOCYTE / ABSOLUTE MONOCYTE / ABSOLUTE SEGMENTED NEUTROPHIL / EOSINOPHIL / ERYTHROCYTE COUNT / HEMATOCRIT / HEMOGLOBIN / LEUKOCYTE COUNT / LYMPHOCYTE / MEAN CORPUSCULAR HEMOGLOBIN / MEAN CORPUSCULAR HEMOGLOBIN CONCENTRATION / MEAN CORPUSCULAR VOLUME / MONOCYTE / NEUTROPHIL / NUCLEATED RED BLOOD CELLS / PLATELET COUNT: tissue Blood; for ALANINE AMINOTRANSFERASE / ALKALINE PHOSPHATASE / ASPARTATE AMINOTRANSFERASE / BLOOD UREA NITROGEN / CARBON DIOXIDE / CHLORIDE / CHOLESTEROL / CREATINE PHOSPHOKINASE / CREATININE / GLUCOSE / LACTATE DEHYDROGENASE / LIPASE / PHOSPHORUS / POTASSIUM / SODIUM / TOTAL BILIRUBIN: tissue Plasma
[1] = 0 mg/kg, 72 h, dose level Control, time 3 day
[2] = 0 mg/kg, 120 h, dose level Control, time 5 day
[3] = 0.3 mg/kg, 72 h, dose level Low, time 3 day
[4] = 0.3 mg/kg, 120 h, dose level Low, time 5 day
[5] = 27 mg/kg, 72 h, dose level M1, time 3 day
[6] = 54 mg/kg, 72 h, dose level High, time 3 day

Q: Which results are given for CN(Cc1cnc2nc(N)nc(N)c2n1)c1ccc(C(=O)N[C@@H](CCC(=O)O)C(=O)O)cc1 [METHOTREXATE]?
A: ABSOLUTE BASOPHIL [1]: 0 CELLS/uL; BASOPHIL [1]: 0%; ABSOLUTE BASOPHIL [2]: 0 CELLS/uL; ABSOLUTE EOSINOPHIL [2]: 331.5 CELLS/uL; BASOPHIL [2]: 0%; ABSOLUTE BASOPHIL [3]: 0 CELLS/uL; ABSOLUTE EOSINOPHIL [3]: 94 CELLS/uL; ABSOLUTE LYMPHOCYTE [3]: 7221.33 CELLS/uL; ABSOLUTE MONOCYTE [3]: 172.67 CELLS/uL; ABSOLUTE SEGMENTED NEUTROPHIL [3]: 2345.33 CELLS/uL; BASOPHIL [3]: 0%; EOSINOPHIL [3]: 0.67%; ERYTHROCYTE COUNT [3]: 5.78 x10E6/uL; HEMATOCRIT [3]: 37.2%; HEMOGLOBIN [3]: 14.3 G/DL; LEUKOCYTE COUNT [3]: 9.83 x10E3/uL; LYMPHOCYTE [3]: 70%; MEAN CORPUSCULAR HEMOGLOBIN [3]: 24.77 pg; MEAN CORPUSCULAR HEMOGLOBIN CONCENTRATION [3]: 38.47 G/DL; MEAN CORPUSCULAR VOLUME [3]: 64.33 fL; MONOCYTE [3]: 1.67%; NEUTROPHIL [3]: 27.67%; NUCLEATED RED BLOOD CELLS [3]: 0 /100WBC; PLATELET COUNT [3]: 997.67 x10E3/uL; ALANINE AMINOTRANSFERASE [3]: 69 u/L; ALKALINE PHOSPHATASE [3]: 597.33 u/L; ASPARTATE AMINOTRANSFERASE [3]: 118.33 u/L; BLOOD UREA NITROGEN [3]: 12.33 mg/dL; CARBON DIOXIDE [3]: 20 mmol/L; CHLORIDE [3]: 100.67 MEQ/L; CHOLESTEROL [3]: 42.33 mg/dL; CREATINE PHOSPHOKINASE [3]: 1224.33 u/L; CREATININE [3]: 0.11 mg/dL; GLUCOSE [3]: 237.67 mg/dL; LACTATE DEHYDROGENASE [3]: 410.67 u/L; LIPASE [3]: 11.67 u/L; PHOSPHORUS [3]: 14.63 mg/dL; POTASSIUM [3]: 6.55 MEQ/L; SODIUM [3]: 141.9 MEQ/L; TOTAL BILIRUBIN [3]: 0.13 mg/dL; ABSOLUTE BASOPHIL [4]: 0 CELLS/uL; ABSOLUTE EOSINOPHIL [4]: 124.67 CELLS/uL; ABSOLUTE LYMPHOCYTE [4]: 6857.33 CELLS/uL; ABSOLUTE MONOCYTE [4]: 225.67 CELLS/uL; ABSOLUTE SEGMENTED NEUTROPHIL [4]: 959 CELLS/uL; BASOPHIL [4]: 0%; EOSINOPHIL [4]: 1.33%; ERYTHROCYTE COUNT [4]: 5.9 x10E6/uL; HEMATOCRIT [4]: 37.7%; HEMOGLOBIN [4]: 14.3 G/DL; LEUKOCYTE COUNT [4]: 8.17 x10E3/uL; LYMPHOCYTE [4]: 82.33%; MEAN CORPUSCULAR HEMOGLOBIN [4]: 24.27 pg; MEAN CORPUSCULAR HEMOGLOBIN CONCENTRATION [4]: 37.93 G/DL; MEAN CORPUSCULAR VOLUME [4]: 63.93 fL; MONOCYTE [4]: 2.67%; NEUTROPHIL [4]: 13.67%; NUCLEATED RED BLOOD CELLS [4]: 0 /100WBC; PLATELET COUNT [4]: 1097 x10E3/uL; ALANINE AMINOTRANSFERASE [4]: 52.33 u/L; ALKALINE PHOSPHATASE [4]: 510 u/L; ASPARTATE AMINOTRANSFERASE [4]: 80.33 u/L; BLOOD UREA NITROGEN [4]: 10 mg/dL; CARBON DIOXIDE [4]: 24 mmol/L; CHLORIDE [4]: 102.33 MEQ/L; CHOLESTEROL [4]: 38 mg/dL; CREATINE PHOSPHOKINASE [4]: 556.67 u/L; CREATININE [4]: 0.1 mg/dL; GLUCOSE [4]: 165.67 mg/dL; LACTATE DEHYDROGENASE [4]: 131.67 u/L; LIPASE [4]: 6.67 u/L; PHOSPHORUS [4]: 12.1 mg/dL; POTASSIUM [4]: 6.83 MEQ/L; SODIUM [4]: 142.1 MEQ/L; TOTAL BILIRUBIN [4]: 0.2 mg/dL; ABSOLUTE BASOPHIL [5]: 0 CELLS/uL; ABSOLUTE EOSINOPHIL [5]: 0 CELLS/uL; BASOPHIL [5]: 0%; EOSINOPHIL [5]: 0%; NUCLEATED RED BLOOD CELLS [5]: 0 /100WBC; CREATININE [5]: 0.19 mg/dL; TOTAL BILIRUBIN [5]: 0.13 mg/dL; ABSOLUTE BASOPHIL [6]: 0 CELLS/uL; ABSOLUTE EOSINOPHIL [6]: 68 CELLS/uL; ABSOLUTE LYMPHOCYTE [6]: 3442 CELLS/uL; ABSOLUTE MONOCYTE [6]: 42 CELLS/uL; ABSOLUTE SEGMENTED NEUTROPHIL [6]: 1648 CELLS/uL; BASOPHIL [6]: 0%; EOSINOPHIL [6]: 1%; ERYTHROCYTE COUNT [6]: 7.17 x10E6/uL; HEMATOCRIT [6]: 43.93%; HEMOGLOBIN [6]: 17.27 G/DL; LEUKOCYTE COUNT [6]: 5.2 x10E3/uL; LYMPHOCYTE [6]: 69%; MEAN CORPUSCULAR HEMOGLOBIN [6]: 24.07 pg; MEAN CORPUSCULAR HEMOGLOBIN CONCENTRATION [6]: 39.3 G/DL; MEAN CORPUSCULAR VOLUME [6]: 61.23 fL; MONOCYTE [6]: 1%; NEUTROPHIL [6]: 29%; NUCLEATED RED BLOOD CELLS [6]: 0 /100WBC; PLATELET COUNT [6]: 1149 x10E3/uL; ALANINE AMINOTRANSFERASE [6]: 26.33 u/L; ALKALINE PHOSPHATASE [6]: 163 u/L; ASPARTATE AMINOTRANSFERASE [6]: 107 u/L; BLOOD UREA NITROGEN [6]: 23 mg/dL; CARBON DIOXIDE [6]: 18.67 mmol/L; CHLORIDE [6]: 94.5 MEQ/L; CHOLESTEROL [6]: 36 mg/dL; CREATINE PHOSPHOKINASE [6]: 1782.67 u/L; CREATININE [6]: 0.13 mg/dL; GLUCOSE [6]: 207.67 mg/dL; LACTATE DEHYDROGENASE [6]: 368.67 u/L; LIPASE [6]: 37 u/L; PHOSPHORUS [6]: 11.03 mg/dL; POTASSIUM [6]: 5.79 MEQ/L; SODIUM [6]: 137 MEQ/L; TOTAL BILIRUBIN [6]: 0.2 mg/dL
